# Where a name gives a salt, the structure may show the parent alone.
# Test: aqueous solubility at 25°C
# Assay type: physicochemical
# Conditions: water
structure (smiles),measurement,setting,value
"CC(CCc1ccc(O)cc1)NCCc1ccc(O)c(O)c1 (racemic) [Dobutamine phosphate dibasic, dobutamine phosphate dibasic]",solubility,room temperature (25°C),~25 mg/mL
CC(CCc1ccc(O)cc1)NCCc1ccc(O)c(O)c1 (racemic) [dobutamine phosphate monobasic],solubility,at 25°C,~2000 mg/mL
CC(CCc1ccc(O)cc1)NCCc1ccc(O)c(O)c1 (stereo not shown) [dobutamine hydrobromide],aqueous solubility,"room temperature (25°C), hydrobromide",about 28 mg per ml of water
CC(CCc1ccc(O)cc1)NCCc1ccc(O)c(O)c1 (stereo not shown) [dobutamine hydrochloride],solubility,room temperature (25°C),28 mg/mL

# Reference: patent EP0280461A2, “Dobutamine salts” (ELI LILLY AND COMPANY, priority 1987, dated 1988)
